Measurements taken from PubChem BioAssay (NCI).
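Exposure lasted 48 hours, with cells grown in 96-well plates and compounds tested at five concentrations. TGI denotes the concentration required for complete inhibition of growth.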

How the values were obtained:
Test in all cases: growth of human tumour cells (NCI), 48 h
HT29 colon = system: HT29 colon
NCI-H23 lung = system: NCI-H23 lung
SF-268 CNS = system: SF-268 CNS
UACC-257 melanoma = system: UACC-257 melanoma
SNB-19 CNS = system: SNB-19 CNS
IGROV1 ovarian = system: IGROV1 ovarian
A498 renal = system: A498 renal
T-47D breast = system: T-47D breast
COLO 205 colon = system: COLO 205 colon
K-562 leukemia = system: K-562 leukemia
HOP-62 NSCLC = system: HOP-62 NSCLC
SK-MEL-2 melanoma = system: SK-MEL-2 melanoma
HCT-15 colon = system: HCT-15 colon
SK-OV-3 ovarian = system: SK-OV-3 ovarian
M14 melanoma = system: M14 melanoma
SF-295 CNS = system: SF-295 CNS
OVCAR-8 ovarian = system: OVCAR-8 ovarian
LOX IMVI melanoma = system: LOX IMVI melanoma
RPMI-8226 leukemia = system: RPMI-8226 leukemia
NCI-H460 lung = system: NCI-H460 lung
SK-MEL-5 melanoma = system: SK-MEL-5 melanoma
MDA-MB-435 = system: MDA-MB-435
CAKI-1 renal = system: CAKI-1 renal
SR leukemia = system: SR leukemia
MOLT-4 leukemia = system: MOLT-4 leukemia
EKVX NSCLC = system: EKVX NSCLC
HL-60(TB) leukemia = system: HL-60(TB) leukemia
UO-31 renal = system: UO-31 renal
DU-145 prostate = system: DU-145 prostate
BT-549 breast = system: BT-549 breast
NCI-H522 lung = system: NCI-H522 lung
MCF7 breast = system: MCF7 breast
HS 578T breast = system: HS 578T breast
OVCAR-5 ovarian = system: OVCAR-5 ovarian
MDA-N = system: MDA-N
MALME-3M melanoma = system: MALME-3M melanoma
HCC-2998 colon = system: HCC-2998 colon
CCRF-CEM leukemia = system: CCRF-CEM leukemia
SW-620 colon = system: SW-620 colon
MDA-MB-231 breast = system: MDA-MB-231 breast
OVCAR-3 ovarian = system: OVCAR-3 ovarian
SNB-75 CNS = system: SNB-75 CNS
786-0 renal = system: 786-0 renal
NCI-H226 lung = system: NCI-H226 lung
U251 CNS = system: U251 CNS
UACC-62 melanoma = system: UACC-62 melanoma
ACHN renal = system: ACHN renal
HCT-116 colon = system: HCT-116 colon
KM12 colon = system: KM12 colon
A549 NSCLC = system: A549 NSCLC
SK-MEL-28 melanoma = system: SK-MEL-28 melanoma
NCI/ADR-RES ovarian = system: NCI/ADR-RES ovarian
SN12C renal = system: SN12C renal
PC-3 prostate = system: PC-3 prostate
TK-10 renal = system: TK-10 renal
HOP-92 NSCLC = system: HOP-92 NSCLC
OVCAR-4 ovarian = system: OVCAR-4 ovarian
SF-539 CNS = system: SF-539 CNS

Q: Which results are given for COC(OC)(c1ccccc1)C(Br)Br?
A: TGI (HT29 colon): > 100 µM; TGI (NCI-H23 lung): > 100 µM; TGI (SF-268 CNS): > 100 µM; TGI (UACC-257 melanoma): > 100 µM; TGI (SNB-19 CNS): > 100 µM; TGI (IGROV1 ovarian): > 100 µM; TGI (A498 renal): > 100 µM; TGI (T-47D breast): > 100 µM; TGI (COLO 205 colon): 39.2 µM; TGI (K-562 leukemia): 71.6 µM; TGI (HOP-62 NSCLC): > 100 µM; TGI (SK-MEL-2 melanoma): > 100 µM; TGI (HCT-15 colon): 42.4 µM; TGI (SK-OV-3 ovarian): > 100 µM; TGI (M14 melanoma): 37.8 µM; TGI (SF-295 CNS): > 100 µM; TGI (OVCAR-8 ovarian): > 100 µM; TGI (LOX IMVI melanoma): > 100 µM; TGI (RPMI-8226 leukemia): > 100 µM; TGI (NCI-H460 lung): > 100 µM; TGI (SK-MEL-5 melanoma): > 100 µM; TGI (MDA-MB-435): > 100 µM; TGI (CAKI-1 renal): 48.5 µM; TGI (SR leukemia): 70.6 µM; TGI (MOLT-4 leukemia): 74.2 µM; TGI (EKVX NSCLC): > 100 µM; TGI (HL-60(TB) leukemia): > 100 µM; TGI (UO-31 renal): > 100 µM; TGI (DU-145 prostate): > 100 µM; TGI (BT-549 breast): > 100 µM; TGI (NCI-H522 lung): 33 µM; TGI (MCF7 breast): > 100 µM; TGI (HS 578T breast): > 100 µM; TGI (OVCAR-5 ovarian): > 100 µM; TGI (MDA-N): > 100 µM; TGI (MALME-3M melanoma): 43.8 µM; TGI (HCC-2998 colon): > 100 µM; TGI (CCRF-CEM leukemia): 42.6 µM; TGI (SW-620 colon): 34.5 µM; TGI (MDA-MB-231 breast): > 100 µM; TGI (OVCAR-3 ovarian): > 100 µM; TGI (SNB-75 CNS): > 100 µM; TGI (786-0 renal): 69.4 µM; TGI (NCI-H226 lung): > 100 µM; TGI (U251 CNS): > 100 µM; TGI (UACC-62 melanoma): > 100 µM; TGI (ACHN renal): > 100 µM; TGI (HCT-116 colon): 37.2 µM; TGI (KM12 colon): > 100 µM; TGI (A549 NSCLC): > 100 µM; TGI (SK-MEL-28 melanoma): > 100 µM; TGI (NCI/ADR-RES ovarian): > 100 µM; TGI (SN12C renal): > 100 µM; TGI (PC-3 prostate): > 100 µM

Q: What does the source list for C/C(=N\NC(=O)Nc1ccccc1Cl)c1ccc(O)cc1?
A: TGI (HT29 colon): > 100 µM; TGI (NCI-H23 lung): > 100 µM; TGI (SF-268 CNS): > 100 µM; TGI (UACC-257 melanoma): > 100 µM; TGI (SNB-19 CNS): > 100 µM; TGI (IGROV1 ovarian): > 100 µM; TGI (T-47D breast): > 100 µM; TGI (COLO 205 colon): > 100 µM; TGI (K-562 leukemia): > 100 µM; TGI (SK-MEL-2 melanoma): > 100 µM; TGI (HCT-15 colon): > 100 µM; TGI (SK-OV-3 ovarian): > 100 µM; TGI (M14 melanoma): > 100 µM; TGI (SF-295 CNS): > 100 µM; TGI (OVCAR-8 ovarian): > 100 µM; TGI (TK-10 renal): > 100 µM; TGI (LOX IMVI melanoma): > 100 µM; TGI (RPMI-8226 leukemia): > 100 µM; TGI (NCI-H460 lung): > 100 µM; TGI (SK-MEL-5 melanoma): > 100 µM; TGI (MDA-MB-435): > 100 µM; TGI (CAKI-1 renal): > 100 µM; TGI (SR leukemia): > 100 µM; TGI (MOLT-4 leukemia): > 100 µM; TGI (EKVX NSCLC): > 100 µM; TGI (HL-60(TB) leukemia): > 100 µM; TGI (UO-31 renal): > 100 µM; TGI (DU-145 prostate): > 100 µM; TGI (BT-549 breast): > 100 µM; TGI (NCI-H522 lung): > 100 µM; TGI (MCF7 breast): > 100 µM; TGI (HS 578T breast): > 100 µM; TGI (OVCAR-5 ovarian): > 100 µM; TGI (MDA-N): > 100 µM; TGI (MALME-3M melanoma): > 100 µM; TGI (HCC-2998 colon): > 100 µM; TGI (CCRF-CEM leukemia): > 100 µM; TGI (SW-620 colon): > 100 µM; TGI (MDA-MB-231 breast): > 100 µM; TGI (OVCAR-3 ovarian): > 100 µM; TGI (SNB-75 CNS): 75.8 µM; TGI (786-0 renal): > 100 µM; TGI (NCI-H226 lung): > 100 µM; TGI (U251 CNS): > 100 µM; TGI (HOP-92 NSCLC): > 100 µM; TGI (OVCAR-4 ovarian): > 100 µM; TGI (UACC-62 melanoma): > 100 µM; TGI (ACHN renal): > 100 µM; TGI (HCT-116 colon): > 100 µM; TGI (KM12 colon): > 100 µM; TGI (SF-539 CNS): > 100 µM; TGI (A549 NSCLC): > 100 µM; TGI (SK-MEL-28 melanoma): > 100 µM; TGI (NCI/ADR-RES ovarian): > 100 µM; TGI (SN12C renal): > 100 µM; TGI (PC-3 prostate): > 100 µM

Q: How did the TGI (HT29 colon) turn out when C=C1CC(Cn2ccc(=O)[nH]c2=O)(c2ccc(OC)cc2)OC1=O (configuration not stated) was run?
A: 31.2 µM

Q: And the TGI (NCI-H23 lung)?
A: 29.2 µM

Q: What about the TGI (SF-268 CNS) of the same compound?
A: 51.1 µM

Q: And the TGI (UACC-257 melanoma)?
A: 35.3 µM

Q: And the TGI (SNB-19 CNS)?
A: > 100 µM

Q: What about the TGI (IGROV1 ovarian) of the same compound?
A: 31.6 µM

Q: What about the TGI (A498 renal) of the same compound?
A: 31.6 µM

Q: And the TGI (T-47D breast)?
A: 39.8 µM

Q: What about the TGI (COLO 205 colon) of the same compound?
A: 14.5 µM

Q: And the TGI (K-562 leukemia)?
A: 16 µM

Q: What about the TGI (HOP-62 NSCLC) of the same compound?
A: > 100 µM

Q: What about the TGI (SK-MEL-2 melanoma) of the same compound?
A: 27.1 µM

Q: What about the TGI (HCT-15 colon) of the same compound?
A: 31.5 µM

Q: What about the TGI (SK-OV-3 ovarian) of the same compound?
A: > 92.9 µM

Q: And the TGI (M14 melanoma)?
A: 21.2 µM

Q: And the TGI (SF-295 CNS)?
A: > 100 µM

Q: And the TGI (OVCAR-8 ovarian)?
A: 46.8 µM

Q: And the TGI (TK-10 renal)?
A: 25.2 µM

Q: What about the TGI (LOX IMVI melanoma) of the same compound?
A: 27.8 µM

Q: And the TGI (RPMI-8226 leukemia)?
A: 12 µM

Q: What about the TGI (NCI-H460 lung) of the same compound?
A: > 67.6 µM

Q: What about the TGI (SK-MEL-5 melanoma) of the same compound?
A: 26.8 µM

Q: What about the TGI (MDA-MB-435) of the same compound?
A: 30.8 µM

Q: And the TGI (CAKI-1 renal)?
A: 19.6 µM

Q: What about the TGI (SR leukemia) of the same compound?
A: 10.5 µM

Q: What about the TGI (MOLT-4 leukemia) of the same compound?
A: 8.25 µM

Q: What about the TGI (EKVX NSCLC) of the same compound?
A: 41.5 µM

Q: And the TGI (HL-60(TB) leukemia)?
A: 7.45 µM

Q: And the TGI (UO-31 renal)?
A: 31.7 µM

Q: And the TGI (DU-145 prostate)?
A: 31.3 µM

Q: What about the TGI (BT-549 breast) of the same compound?
A: 24.6 µM

Q: And the TGI (NCI-H522 lung)?
A: 4.4 µM

Q: What about the TGI (MCF7 breast) of the same compound?
A: 16 µM

Q: What about the TGI (HS 578T breast) of the same compound?
A: 56.9 µM

Q: What about the TGI (OVCAR-5 ovarian) of the same compound?
A: 32.2 µM

Q: What about the TGI (MDA-N) of the same compound?
A: 28 µM

Q: And the TGI (MALME-3M melanoma)?
A: 27 µM

Q: What about the TGI (HCC-2998 colon) of the same compound?
A: 17.5 µM

Q: What about the TGI (CCRF-CEM leukemia) of the same compound?
A: 10.4 µM

Q: What about the TGI (SW-620 colon) of the same compound?
A: 16.1 µM

Q: And the TGI (MDA-MB-231 breast)?
A: 33.2 µM

Q: And the TGI (OVCAR-3 ovarian)?
A: 36.1 µM

Q: And the TGI (786-0 renal)?
A: 25.2 µM

Q: And the TGI (NCI-H226 lung)?
A: 39.3 µM

Q: What about the TGI (U251 CNS) of the same compound?
A: 53.4 µM

Q: And the TGI (HOP-92 NSCLC)?
A: 4.58 µM

Q: What about the TGI (OVCAR-4 ovarian) of the same compound?
A: 35.1 µM

Q: What about the TGI (UACC-62 melanoma) of the same compound?
A: 27.9 µM

Q: What about the TGI (ACHN renal) of the same compound?
A: 33 µM

Q: And the TGI (HCT-116 colon)?
A: 20 µM

Q: And the TGI (KM12 colon)?
A: 35.5 µM

Q: What about the TGI (SF-539 CNS) of the same compound?
A: 41.2 µM

Q: And the TGI (A549 NSCLC)?
A: 59.2 µM

Q: What about the TGI (SK-MEL-28 melanoma) of the same compound?
A: 33 µM

Q: What about the TGI (NCI/ADR-RES ovarian) of the same compound?
A: 38.9 µM

Q: What about the TGI (SN12C renal) of the same compound?
A: 19 µM

Q: And the TGI (PC-3 prostate)?
A: 30.6 µM
